{"source": "patent US9884832B2", "about": "(priority 2011, dated 2018)", "data": [{"biological_target": "AM2 S31 (wild-type serine at position 31 in the M2 protein), influenza virus A/Udorn/72 (Influenza A virus, UniProt P0DOF5)", "sequence (P0DOF5 whole entry, looked up)": "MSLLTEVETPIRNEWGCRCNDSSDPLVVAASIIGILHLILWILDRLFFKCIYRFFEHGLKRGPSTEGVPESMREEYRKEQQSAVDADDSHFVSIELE", "assay": "cell-based", "conditions": "100 uM; Xenopus oocytes; activity range class; read-out: S31 OOcyte Inhibition at 100 uM (%)", "units": {"inhibition at 100 µM": "%"}, "values": [{"compound": "c1cnc2ccc(CNC34CC5CC(CC(C5)C3)C4)cc2c1", "note": "[Example 39a, Adamantan-1-yl-quinolin-6-ylmethyl-amine]", "inhibition at 100 µM": "0 to 30"}, {"compound": "Fc1ccc(-c2nc(CNC34CC5CC(CC(C5)C3)C4)no2)cc1", "note": "[Example 163a]", "inhibition at 100 µM": "0 to 30"}, {"compound": "Oc1cc(-c2cc3ccccc3o2)ccc1CNC12CC3CC(CC(C3)C1)C2", "note": "[Example 48a]", "inhibition at 100 µM": "0 to 30"}, {"compound": "Nc1ncc(CNC23CC4CC(CC(C4)C2)C3)s1", "note": "[Example 93a, 5-((adamantan-1-ylamino)methyl)thiazol-2-amine]", "inhibition at 100 µM": "31 to 95"}, {"compound": "COc1ccc(-c2cc(CNC34CC5CC(CC(C5)C3)C4)no2)cc1", "note": "[Example 110a, N-((5-(4-methoxyphenyl)isoxazol-3-yl)methyl)adamantan-1-amine]", "inhibition at 100 µM": "0 to 30"}, {"compound": "CCOc1ccc(CNC23CC4CC(CC(C4)C2)C3)cc1", "note": "[Example 1a, Adamantan-1-yl-(4-ethoxy-benzyl)-amine]", "inhibition at 100 µM": "0 to 30"}, {"compound": "Oc1cccc2ccc(CNC34CC5CC(CC(C5)C3)C4)nc12", "note": "[Example 65a, 2-((adamantan-1-ylamino)methyl)quinolin-8-ol]", "inhibition at 100 µM": "31 to 95"}, {"compound": "O=c1[nH]cc(CNC23CC4CC(CC(C4)C2)C3)c(=O)[nH]1", "note": "[Example 169a, 5-((adamantan-1-ylamino)methyl)pyrimidine-2,4(1H,3H)-dione]", "inhibition at 100 µM": "0 to 30"}, {"compound": "Clc1ccc2[nH]c(CNC34CC5CC(CC(C5)C3)C4)nc2c1", "note": "[Example 181a, Adamantan-1-yl-(5-chloro-1H-benzoimidazol-2-ylmethyl)-amine]", "inhibition at 100 µM": "0 to 30"}, {"compound": "Cn1cc(C(F)(F)F)c(-c2ccc(CNC34CC5CC(CC(C5)C3)C4)s2)n1", "note": "[Example 155a, N-((5-(1-methyl-4-(trifluoromethyl)-1H-pyrazol-3-yl)thiophen-2-yl)methyl)adamantan-1-amine]", "inhibition at 100 µM": "0 to 30"}, {"compound": "c1cncc(-c2noc(CNC34CC5CC(CC(C5)C3)C4)n2)c1", "note": "[Example 135a, Adamantan-1-yl-(3-pyridin-3-yl-[1,2,4]oxadiazol-5-ylmethyl)-amine]", "inhibition at 100 µM": "0 to 30"}, {"compound": "CC(C)(C)c1ccc(CNC23CC4CC(CC(C4)C2)C3)cc1", "note": "[Example 7a, N-(4-(tert-Butyl)benzyl)adamantan-1-amine methanesulfonate]", "inhibition at 100 µM": "0 to 30"}, {"compound": "C[Si](C)(C)c1ccc(CNC23CC4CC(CC(C4)C2)C3)cc1", "note": "[Example 6a, Adamantan-1-yl-(4-trimethylsilanyl-benzyl)-amine]", "inhibition at 100 µM": "0 to 30"}, {"compound": "Brc1ncc(CNC23CC4CC(CC(C4)C2)C3)s1", "note": "[Example 104a, N-((2-bromothiazol-5-yl)methyl)adamantan-1-amine]", "inhibition at 100 µM": "0 to 30"}, {"compound": "c1cc(CNC23CC4CC(CC(C4)C2)C3)cc(-c2ccco2)c1", "note": "[Example 30a, N-(3-(Furan-2-yl)benzyl)adamantan-1-amine]", "inhibition at 100 µM": "0 to 30"}, {"compound": "c1csc(-c2ccc(-c3ccc(CNC45CC6CC(CC(C6)C4)C5)s3)s2)c1", "note": "[Example 157a, N-([2,2′:5′,2″-terthiophen]-5-ylmethyl)adamantan-1-amine]", "inhibition at 100 µM": "0 to 30"}, {"compound": "c1cc2cc(CNC34CC5CC(CC(C5)C3)C4)ccc2s1", "note": "[Example 41a, N-(benzo[b]thiophen-5-ylmethyl)adamantan-1-amine]", "inhibition at 100 µM": "31 to 95"}, {"compound": "Brc1cccc(CNC23CC4CC(CC(C4)C2)C3)c1", "note": "[Example 3a, N-(3-Bromobenzyl)adamantan-1-amine]", "inhibition at 100 µM": "31 to 95"}, {"compound": "c1csc(-c2ccc(CNC34CC5CC(CC(C5)C3)C4)cn2)c1", "note": "[Example 58a, N-((6-(thiophen-2-yl)pyridin-3-yl)methyl)adamantan-1-amine]", "inhibition at 100 µM": "31 to 95"}, {"compound": "Oc1cc(-c2ccoc2)ccc1CNC12CC3CC(CC(C3)C1)C2", "note": "[Example 46a]", "inhibition at 100 µM": "0 to 30"}, {"compound": "CC(=O)c1ccc(CNC23CC4CC(CC(C4)C2)C3)cc1", "note": "[Example 44a]", "inhibition at 100 µM": "0 to 30"}, {"compound": "c1cc(-c2ccc(CNC34CC5CC(CC(C5)C3)C4)cn2)cs1", "note": "[Example 59a, N-((6-(thiophen-3-yl)pyridin-3-yl)methyl)adamantan-1-amine]", "inhibition at 100 µM": "0 to 30"}, {"compound": "c1cc2cn[nH]c2cc1CNC12CC3CC(CC(C3)C1)C2", "note": "[Example 43a, N-((1H-indazol-6-yl)methyl)adamantan-1-amine]", "inhibition at 100 µM": "31 to 95"}, {"compound": "c1ccc2cc(COc3ccc(CNC45CC6CC(CC(C6)C4)C5)cc3)ccc2c1", "note": "[Example 38a, N-(4-(naphthalen-2-ylmethoxy)benzyl)adamantan-1-amine]", "inhibition at 100 µM": "0 to 30"}, {"compound": "c1csc(-c2nc(CNC34CC5CC(CC(C5)C3)C4)no2)c1", "note": "[Example 146a, N-((5-(thiophen-2-yl)-1,2,4-oxadiazol-3-yl)methyl)adamantan-1-amine]", "inhibition at 100 µM": "0 to 30"}, {"compound": "Cc1ccc(CNC23CC4CC(CC(C4)C2)C3)c(O)c1", "note": "[Example 51a]", "inhibition at 100 µM": "31 to 95"}, {"compound": "Oc1c(CNC23CC4CC(CC(C4)C2)C3)ccc2ccccc12", "note": "[Example 53a, 2-(Adamantan-1-ylaminomethyl)-naphthalen-1-ol]", "inhibition at 100 µM": "31 to 95"}, {"compound": "CC(C)(C)c1cc(CNC23CC4CC(CC(C4)C2)C3)[nH]n1", "note": "[Example 101a, N-((3-(tert-butyl)-1H-pyrazol-5-yl)methyl)adamantan-1-amine]", "inhibition at 100 µM": "0 to 30"}, {"compound": "c1cc(-c2ccc(CNC34CC5CC(CC(C5)C3)C4)s2)co1", "note": "[Example 137a, N-((5-(Furan-3-yl)thiophen-2-yl)methyl)adamantan-1-amine]", "inhibition at 100 µM": "0 to 30"}, {"compound": "c1coc(-c2cc(CNC34CC5CC(CC(C5)C3)C4)no2)c1", "note": "[Example 153a, N-((5-(furan-2-yl)isoxazol-3-yl)methyl)adamantan-1-amine]", "inhibition at 100 µM": "0 to 30"}]}, {"biological_target": "AM2 S31 (wild-type serine at position 31 in the M2 protein), influenza virus A/Udorn/72 (Influenza A virus, UniProt P0DOF5)", "assay": "cell-based", "conditions": "Table 1; 100 uM; Xenopus oocytes, pH 5.5, -20 mV; read-out: S31 OOcyte Inhibition at 100 uM (%)", "units": {"inhibition at 100 µM": "%"}, "values": [{"compound": "Brc1ccc(CNC23CC4CC(CC(C4)C2)C3)cc1", "note": "[Example 41, N-(4-Bromobenzyl)adamantan-1-amine]", "inhibition at 100 µM": "31 to 95"}, {"compound": "c1ccc2nc(CNC34CC5CC(CC(C5)C3)C4)ccc2c1", "note": "[Example 98, Adamantan-1-yl-quinolin-2-ylmethyl-amine]", "inhibition at 100 µM": "31 to 95"}, {"compound": "O=[N+]([O-])c1ccccc1CNC12CC3CC(CC(C3)C1)C2", "note": "[Example 30, Adamantan-1-yl-(2-nitro-benzyl)-amine]", "inhibition at 100 µM": "31 to 95"}, {"compound": "Oc1ccc(CN2CC3CC4CC(C3)CC2C4)c(O)c1", "note": "[Example 116, 4-(4-Aza-tricyclo[4.3.1.13,8]undec-4-ylmethyl)-benzene-1,3-diol]", "inhibition at 100 µM": "31 to 95"}, {"compound": "CC(=O)Nc1ccc(CNC23CC4CC(CC(C4)C2)C3)cc1", "note": "[Example 17, N-[4-(Adamantan-1-ylaminomethyl)-phenyl]-acetamide]", "inhibition at 100 µM": "0 to 30"}, {"compound": "c1csc(-c2ccc(CNC34CC5CC(CC(C5)C3)C4)cc2)c1", "note": "[Example 44, N-(4-(Thiophen-2-yl)benzyl)adamantan-1-amine]", "inhibition at 100 µM": "0 to 30"}, {"compound": "Fc1ccc(C(F)(F)F)cc1CNC12CC3CC(CC(C3)C1)C2", "note": "[Example 62, Adamantan-1-yl-(2-fluoro-5-trifluoromethyl-benzyl)-amine]", "inhibition at 100 µM": "0 to 30"}, {"compound": "N#Cc1ccc(CNC23CC4CC(CC(C4)C2)C3)cc1", "note": "[Example 14, 4-(Adamantan-1-ylaminomethyl)-benzonitrile]", "inhibition at 100 µM": "31 to 95"}, {"compound": "c1cnc2sc(CNC34CC5CC(CC(C5)C3)C4)cc2c1", "note": "[Example 90, Adamantan-1-yl-thieno[2,3-b]pyridin-2-ylmethyl-amine]", "inhibition at 100 µM": "0 to 30"}, {"compound": "CC(=O)c1sccc1-c1ccc(CNC23CC4CC(CC(C4)C2)C3)cc1", "note": "[Example 43, 1-(3-(4-((Adamantan-1-ylamino)methyl)phenyl)thiophen-2-yl)ethanone]", "inhibition at 100 µM": "0 to 30"}, {"compound": "Oc1ccc(CNC23CC4CC(CC(C4)C2)C3)c(O)c1O", "note": "[Example 65, 4-(Adamantan-1-ylaminomethyl)-benzene-1,2,3-triol]", "inhibition at 100 µM": "0 to 30"}, {"compound": "Oc1ccc(CN2CCC3(CCCCC3)CC2)c(O)c1", "note": "[Example 115, 4-(3-Aza-spiro[5.5]undec-3-ylmethyl)-benzene-1,3-diol]", "inhibition at 100 µM": "31 to 95"}, {"compound": "Oc1ccc(CNC23CC4CC(CC(C4)C2)C3)cc1", "note": "[Example 9, 4-(Adamantan-1-ylaminomethyl)-phenol]", "inhibition at 100 µM": "31 to 95"}, {"compound": "Clc1c(CNC23CC4CC(CC(C4)C2)C3)nc2sccn12", "note": "[Example 87, Adamantan-1-yl-(5-chloro-imidazo[2,1-b]thiazol-6-ylmethyl)-amine]", "inhibition at 100 µM": "0 to 30"}]}, {"biological_target": "AM2 S31 (wild-type serine at position 31 in the M2 protein), influenza virus A/Udorn/72 (Influenza A virus, UniProt P0DOF5)", "assay": "cell-based", "conditions": "Table 3; 100 uM; Xenopus oocytes, pH 5.5, -20 mV; read-out: S31 OOcyte Inhibition at 100 uM (%)", "units": {"inhibition at 100 µM": "%"}, "values": [{"compound": "CC(C)(C)c1ccc(-c2ccc(CNC34CC5CC(CC(C5)C3)C4)s2)cc1", "note": "[Example 50b, N-((5-(4-(tert-Butyl)phenyl)thiophen-2-yl)methyl)adamantan-1-amine]", "inhibition at 100 µM": "0 to 30"}, {"compound": "CC(C)c1cc(CNC23CC4CC(CC(O)(C4)C2)C3)no1", "note": "[Example 85b, (1s,3r,5R,7S)-3-(((5-isopropylisoxazol-3-yl)methyl)amino)adamantan-1-61]", "inhibition at 100 µM": "0 to 30"}, {"compound": "c1ccc(-c2cnc(CNC34CC5CC(CC(C5)C3)C4)[nH]2)cc1", "note": "[Example 53b, N-((5-phenyl-1H-imidazol-2-yl)methyl)adamantan-1-amine]", "inhibition at 100 µM": "0 to 30"}, {"compound": "c1nc(C2CCCCC2)ncc1CNC12CC3CC(CC(C3)C1)C2", "note": "[Example 61b, N-((2-cyclohexylpyrimidin-5-yl)methyl)adamantan-1-amine]", "inhibition at 100 µM": "0 to 30"}, {"compound": "Brc1ccccc1-c1cc(CNC23CC4CC(CC(C4)C2)C3)no1", "note": "[Example 43b, N-((5-(2-bromophenyl)isoxazol-3-yl)methyl)adamantan-1-amine]", "inhibition at 100 µM": "0 to 30"}, {"compound": "Cc1csc(CNC23CC4CC(CC(C4)C2)C3)n1", "note": "[Example 68b, Adamantan-1-yl-(4-methyl-thiazol-2-ylmethyl)-amine]", "inhibition at 100 µM": "31 to 95"}, {"compound": "c1cc2nc(CNC34CC5CC(CC(C5)C3)C4)sc2s1", "note": "[Example 77b, Adamantan-1-yl-thieno[3,2-d]thiazol-2-ylmethyl-amine]", "inhibition at 100 µM": "0 to 30"}, {"compound": "CCCc1cc(CNC23CC4CC(CC(C4)C2)C3)no1", "note": "[Example 26b, N-((5-propylisoxazol-3-yl)methyl)adamantan-1-amine]", "inhibition at 100 µM": "0 to 30"}, {"compound": "Cc1nc(CNC23CC4CC(CC(C4)C2)C3)cs1", "note": "[Example 12b, N-((2-methylthiazol-4-yl)methyl)adamantan-1-amine]", "inhibition at 100 µM": "31 to 95"}]}]}
